Measured values published in ChEMBL document CHEMBL1201862, “PubChem BioAssay data set” (2004).
Active and inactive are the calls of the source.

Legend:
[1] = target: Rho-associated protein kinase 1 (Homo sapiens, UniProt Q13464); assay type: functional;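 further: measured within a broad kinome-wide panel profiling many kinases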
[2] = target: Dual specificity mitogen-activated protein kinase kinase 2 (Homo sapiens, UniProt P36507); assay: Navigating the Kinome. Panel member name: MAP2K2; assay type: functional
Dual specificity mitogen-activated protein kinase kinase 2, sequence (P36507 whole entry): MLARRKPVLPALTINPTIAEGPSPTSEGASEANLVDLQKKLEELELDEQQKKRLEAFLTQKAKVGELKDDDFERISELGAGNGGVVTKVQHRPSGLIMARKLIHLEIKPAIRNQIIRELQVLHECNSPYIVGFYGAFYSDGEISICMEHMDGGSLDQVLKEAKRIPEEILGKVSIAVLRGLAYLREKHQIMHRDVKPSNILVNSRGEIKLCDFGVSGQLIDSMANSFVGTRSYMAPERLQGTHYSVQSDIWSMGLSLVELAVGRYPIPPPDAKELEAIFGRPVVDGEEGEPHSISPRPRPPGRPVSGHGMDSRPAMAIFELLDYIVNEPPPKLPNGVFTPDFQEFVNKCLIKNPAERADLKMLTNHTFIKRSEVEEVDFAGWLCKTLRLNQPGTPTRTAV

[3] = target: T1, Apoptotic protease-activating factor 1 (Homo sapiens, UniProt O14727); assay type: functional
T1 sequence (O14727 whole entry): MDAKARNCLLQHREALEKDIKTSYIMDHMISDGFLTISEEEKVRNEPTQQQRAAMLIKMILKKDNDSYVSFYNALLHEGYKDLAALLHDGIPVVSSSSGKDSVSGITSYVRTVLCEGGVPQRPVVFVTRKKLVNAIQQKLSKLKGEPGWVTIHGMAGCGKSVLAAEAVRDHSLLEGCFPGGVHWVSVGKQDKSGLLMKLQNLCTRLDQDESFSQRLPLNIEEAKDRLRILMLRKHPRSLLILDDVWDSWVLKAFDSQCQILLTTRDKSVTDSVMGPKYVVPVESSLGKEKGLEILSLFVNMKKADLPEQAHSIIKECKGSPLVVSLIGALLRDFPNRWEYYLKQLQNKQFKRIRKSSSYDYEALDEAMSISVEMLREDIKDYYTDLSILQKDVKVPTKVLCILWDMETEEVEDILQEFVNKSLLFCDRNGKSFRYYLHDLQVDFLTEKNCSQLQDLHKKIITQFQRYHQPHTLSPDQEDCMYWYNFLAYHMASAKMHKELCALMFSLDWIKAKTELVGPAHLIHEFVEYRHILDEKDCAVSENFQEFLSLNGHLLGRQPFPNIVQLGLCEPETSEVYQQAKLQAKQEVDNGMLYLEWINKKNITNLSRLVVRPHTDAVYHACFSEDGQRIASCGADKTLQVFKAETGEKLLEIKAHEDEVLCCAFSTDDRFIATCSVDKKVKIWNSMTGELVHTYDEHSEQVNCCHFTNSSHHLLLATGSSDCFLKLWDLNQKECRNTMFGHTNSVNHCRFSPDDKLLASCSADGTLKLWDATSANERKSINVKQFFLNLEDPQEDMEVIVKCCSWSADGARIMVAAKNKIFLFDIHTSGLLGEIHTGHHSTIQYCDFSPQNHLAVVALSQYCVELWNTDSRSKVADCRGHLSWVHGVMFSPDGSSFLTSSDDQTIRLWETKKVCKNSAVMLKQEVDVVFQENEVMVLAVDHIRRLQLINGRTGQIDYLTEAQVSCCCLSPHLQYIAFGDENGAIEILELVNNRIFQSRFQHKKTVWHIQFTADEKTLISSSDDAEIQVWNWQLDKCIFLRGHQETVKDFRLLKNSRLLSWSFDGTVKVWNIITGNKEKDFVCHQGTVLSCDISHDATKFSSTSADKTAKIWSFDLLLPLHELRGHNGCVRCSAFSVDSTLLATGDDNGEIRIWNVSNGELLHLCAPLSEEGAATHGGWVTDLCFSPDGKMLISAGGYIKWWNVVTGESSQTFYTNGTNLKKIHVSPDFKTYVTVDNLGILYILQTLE

[4] = target: T2, Histone-lysine N-methyltransferase NSD2 (Homo sapiens, UniProt O96028); assay type: biochemical
T2 sequence (O96028 whole entry): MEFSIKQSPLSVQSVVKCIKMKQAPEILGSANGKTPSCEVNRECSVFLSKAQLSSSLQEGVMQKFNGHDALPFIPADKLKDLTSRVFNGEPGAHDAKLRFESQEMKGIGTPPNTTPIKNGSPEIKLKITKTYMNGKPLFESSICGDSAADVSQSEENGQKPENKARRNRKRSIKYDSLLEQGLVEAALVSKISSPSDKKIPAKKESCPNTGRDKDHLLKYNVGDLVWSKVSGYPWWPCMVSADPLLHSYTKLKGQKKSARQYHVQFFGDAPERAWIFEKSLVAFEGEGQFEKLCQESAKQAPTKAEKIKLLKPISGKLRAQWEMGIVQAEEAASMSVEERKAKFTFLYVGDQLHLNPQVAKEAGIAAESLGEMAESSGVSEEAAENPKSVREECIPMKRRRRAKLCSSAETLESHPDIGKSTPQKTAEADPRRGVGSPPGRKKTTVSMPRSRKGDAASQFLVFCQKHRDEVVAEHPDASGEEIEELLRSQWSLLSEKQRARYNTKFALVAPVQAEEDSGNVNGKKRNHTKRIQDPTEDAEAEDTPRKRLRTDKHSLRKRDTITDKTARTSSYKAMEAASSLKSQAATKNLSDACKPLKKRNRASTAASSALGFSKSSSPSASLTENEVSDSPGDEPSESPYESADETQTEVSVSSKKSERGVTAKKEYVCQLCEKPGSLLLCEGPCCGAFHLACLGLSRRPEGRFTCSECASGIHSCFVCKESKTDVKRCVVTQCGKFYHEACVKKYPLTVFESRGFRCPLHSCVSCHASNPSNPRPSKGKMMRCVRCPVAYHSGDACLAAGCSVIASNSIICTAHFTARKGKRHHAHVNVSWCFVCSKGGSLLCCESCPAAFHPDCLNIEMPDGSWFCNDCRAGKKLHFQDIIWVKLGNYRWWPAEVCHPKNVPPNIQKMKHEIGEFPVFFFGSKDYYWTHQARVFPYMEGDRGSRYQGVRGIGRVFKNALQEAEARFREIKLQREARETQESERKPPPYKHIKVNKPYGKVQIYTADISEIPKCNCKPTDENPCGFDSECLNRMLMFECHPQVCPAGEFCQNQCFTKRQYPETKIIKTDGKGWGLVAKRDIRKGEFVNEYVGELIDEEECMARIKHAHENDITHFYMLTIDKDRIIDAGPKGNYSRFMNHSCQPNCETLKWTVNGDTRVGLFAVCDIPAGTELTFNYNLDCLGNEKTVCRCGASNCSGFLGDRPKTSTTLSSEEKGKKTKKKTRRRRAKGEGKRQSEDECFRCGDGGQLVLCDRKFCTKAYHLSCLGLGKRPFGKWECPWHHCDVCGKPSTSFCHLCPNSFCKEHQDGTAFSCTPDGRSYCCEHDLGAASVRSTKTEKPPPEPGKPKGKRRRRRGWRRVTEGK

[5] = target: T3, Tyrosyl-DNA phosphodiesterase 2 (Homo sapiens, UniProt O95551); assay: human TDP2 enzyme inhibitors, dose response, biochemical, epi absorbance, IC50 (AID 743297)
T3 sequence (O95551 whole entry): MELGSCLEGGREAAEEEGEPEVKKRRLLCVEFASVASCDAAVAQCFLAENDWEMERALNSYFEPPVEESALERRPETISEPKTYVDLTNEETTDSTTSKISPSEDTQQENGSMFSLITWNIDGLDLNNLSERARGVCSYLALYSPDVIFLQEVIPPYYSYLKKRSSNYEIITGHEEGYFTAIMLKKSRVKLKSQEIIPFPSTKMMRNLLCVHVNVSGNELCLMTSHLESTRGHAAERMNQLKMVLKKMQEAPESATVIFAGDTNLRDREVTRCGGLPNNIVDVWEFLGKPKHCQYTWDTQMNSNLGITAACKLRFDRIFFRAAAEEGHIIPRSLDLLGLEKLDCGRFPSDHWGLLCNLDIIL

Rho-associated protein kinase 1, sequence (Q13464 whole entry): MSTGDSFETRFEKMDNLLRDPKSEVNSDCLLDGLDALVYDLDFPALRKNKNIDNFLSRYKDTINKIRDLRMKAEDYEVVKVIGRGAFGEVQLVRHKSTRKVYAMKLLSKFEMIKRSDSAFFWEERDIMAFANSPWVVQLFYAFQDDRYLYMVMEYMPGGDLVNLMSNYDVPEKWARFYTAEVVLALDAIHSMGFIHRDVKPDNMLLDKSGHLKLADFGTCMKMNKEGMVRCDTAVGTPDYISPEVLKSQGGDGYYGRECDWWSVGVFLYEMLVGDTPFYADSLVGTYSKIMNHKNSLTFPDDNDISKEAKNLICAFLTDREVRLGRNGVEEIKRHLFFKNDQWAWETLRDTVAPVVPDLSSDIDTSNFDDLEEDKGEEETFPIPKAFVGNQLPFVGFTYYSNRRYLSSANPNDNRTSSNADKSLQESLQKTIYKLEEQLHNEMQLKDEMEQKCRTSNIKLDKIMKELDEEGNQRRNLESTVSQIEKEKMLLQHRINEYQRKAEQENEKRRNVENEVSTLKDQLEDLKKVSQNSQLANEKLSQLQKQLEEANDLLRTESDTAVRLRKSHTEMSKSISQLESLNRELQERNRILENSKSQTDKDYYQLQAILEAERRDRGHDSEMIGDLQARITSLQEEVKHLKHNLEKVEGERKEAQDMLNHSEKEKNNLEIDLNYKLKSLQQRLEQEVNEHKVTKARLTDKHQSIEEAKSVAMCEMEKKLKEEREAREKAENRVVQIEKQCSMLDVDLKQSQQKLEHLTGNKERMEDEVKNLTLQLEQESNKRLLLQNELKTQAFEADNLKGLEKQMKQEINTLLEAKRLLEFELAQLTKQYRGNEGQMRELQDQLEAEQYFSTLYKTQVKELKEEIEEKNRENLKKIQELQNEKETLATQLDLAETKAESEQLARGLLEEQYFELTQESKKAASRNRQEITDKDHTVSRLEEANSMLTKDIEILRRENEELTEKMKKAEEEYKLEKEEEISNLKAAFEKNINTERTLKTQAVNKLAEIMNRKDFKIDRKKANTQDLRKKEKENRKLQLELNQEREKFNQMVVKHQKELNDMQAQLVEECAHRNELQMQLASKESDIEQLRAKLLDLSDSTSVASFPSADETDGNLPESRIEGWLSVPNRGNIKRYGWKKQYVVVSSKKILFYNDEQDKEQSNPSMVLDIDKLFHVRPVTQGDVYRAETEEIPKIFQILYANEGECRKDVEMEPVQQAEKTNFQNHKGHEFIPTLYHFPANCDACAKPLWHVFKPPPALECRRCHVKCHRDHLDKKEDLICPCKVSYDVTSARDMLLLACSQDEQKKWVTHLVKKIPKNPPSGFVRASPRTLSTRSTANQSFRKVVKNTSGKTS

| Structure (SMILES) | Ki [1] | Ki [2] | IC50 [3] | AC50 [4] | IC50 [5] |
| --- | --- | --- | --- | --- | --- |
| Cc1ccc(-c2cc3nc(Br)cnc3[nH]2)cc1 | > 3.98 µM (inactive) | > 3.98 µM (inactive) | – | – | – |
| CC1(C)C=C2C(=NN(c3ccccc3)C(N)=C2C#N)CO1 | – | – | 1.38 µM (active) | 5.67 µM (active) | 1.27 µM (active) |
| CC(=O)N(C1=C(Cl)C(=O)c2ccccc2C1=O)c1ccc(C(=O)O)cc1 | – | – | 2.92 µM (active) | 3.29 µM (active) | 9.4 µM (active) |
